Where two headings read alike, the source gives them in different places.
What was measured:
[1] = target: GDP-bound KRAS wild-type protein (Homo sapiens, UniProt P01116); assay: Binding to KRAS by surface plasmon resonance (SPR), dissociation constant KD
Summary of the method: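 Measured at 30°C: SPR with GDP-loaded, E. coli-expressed biotin-Avi RAS captured (~100–300 RU), ascending 75 s compound injections, HBS pH 7.4 with GDP, MgCl2, 4% DMSO. KD from 1:1 fit.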

[2] = target: GDP-bound NRAS wild-type protein (Homo sapiens, UniProt P01111); assay: Binding to NRAS by surface plasmon resonance (SPR), KD and KD ratio to KRAS
Chain of GDP-bound NRAS wild-type protein (P01111 whole entry): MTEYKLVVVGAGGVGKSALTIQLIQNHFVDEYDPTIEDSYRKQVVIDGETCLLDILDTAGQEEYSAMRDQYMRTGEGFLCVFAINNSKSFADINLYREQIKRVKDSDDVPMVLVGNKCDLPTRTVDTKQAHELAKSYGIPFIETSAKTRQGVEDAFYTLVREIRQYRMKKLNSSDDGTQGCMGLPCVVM
Summary of the method: (§1)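 Running buffer contained 10 µM GDP and 10 mM MgCl2 to keep RAS in the GDP state, with 4% DMSO at pH 7.4. Compounds were flowed at 100 µL/min in 75 s steps of rising concentration over captured biotin-Avi RAS at 30°C. Sensorgrams were fitted 1:1 for KD.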

HRAS wild-type protein = HRAS wild-type protein (Homo sapiens, UniProt P01112); assay: Binding to HRAS by surface plasmon resonance (SPR), KD and KD ratio to KRAS
Chain of HRAS wild-type protein (P01112 whole entry): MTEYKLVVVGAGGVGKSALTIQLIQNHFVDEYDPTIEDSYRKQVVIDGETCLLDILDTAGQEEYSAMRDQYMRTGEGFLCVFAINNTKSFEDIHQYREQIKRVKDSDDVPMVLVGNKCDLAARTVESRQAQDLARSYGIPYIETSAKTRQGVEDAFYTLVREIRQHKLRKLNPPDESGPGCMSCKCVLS
Summary of the method: as §1

[3] = tested on: human lung cancer strain NCI-H441; assay: NCI-H441 cell proliferation inhibitory activity (CellTiter-Glo, 4 days); type: cell-based; conditions: read-out: NCl-H441 IC50
Summary of the method: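 Step one: dispense the test compound in serial DMSO dilutions. Step three: add the reagent and measure […].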

[4] = ratio of KD for GDP-bound NRAS wild-type protein to KD for KRAS
[5] = ratio of KD for HRAS wild-type protein to KD for KRAS
[6] = Single Cycle Kinetics, 1:1 binding model
[7] = ratio of KD with respect to GDP-bound NRAS wild-type protein to KD with respect to KRAS
[8] = ratio of KD with respect to HRAS wild-type protein to KD with respect to KRAS
[9] = 50% proliferation inhibitory concentration, four days

Chain of GDP-bound KRAS wild-type protein (P01116 1-188 isoform P01116-2): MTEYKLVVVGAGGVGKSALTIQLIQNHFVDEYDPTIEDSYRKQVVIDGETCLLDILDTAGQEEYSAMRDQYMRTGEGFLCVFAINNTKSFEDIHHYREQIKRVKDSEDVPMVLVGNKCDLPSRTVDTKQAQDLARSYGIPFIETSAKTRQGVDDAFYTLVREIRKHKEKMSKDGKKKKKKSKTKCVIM

Row | Kd ([1]; Single Cycle Kinetics) | IC50 ([3]; NCI-H441 cells, 4 days) | Kd [1, 6] | IC50 [3, 9] | Kd ([1]; 1:1 binding model) | SMILES | NRAS /KRAS [2, 4] | HRAS /KRAS (HRAS wild-type protein; [5]) | NRAS /KRAS [2, 7] | HRAS /KRAS (HRAS wild-type protein; [8])
1 | – | – | 0.55 nM | 48.9 nM | – | CC[C@H](C)[C@@H]1NC(=O)[C@H](CC)N(C)C(=O)C[C@@H](C(=O)N(C)C)N(C)C(=O)[C@H](C2CCCC2)N(C)C(=O)C2(CCC2)NC(=O)[C@@H]2CCCN2C(=O)[C@H](CCc2cc(F)c(C(F)(F)F)c(F)c2)NC(=O)CN(C)C(=O)[C@H](CC2CCCCC2)N2CC/C=C\C[C@@H](C2=O)N(C)C(=O)CN(C)C1=O [PP1475] | – | – | A (a compound having 10 or more and less than 20 is denoted as A) | A (a compound having 10 or more and less than 20 is denoted as A)
2 | – | 6.6 nM | – | – | 0.12 nM | CCOC[C@H]1C(=O)N[C@@H]([C@@H](C)CC)C(=O)N(C)CC(=O)N(C)[C@H]2C/C=C\CCN(C2=O)[C@@H](Cc2ccc(C)cc2)C(=O)N(C)CC(=O)N[C@@H](CCc2cc(F)c(C(F)(F)F)c(F)c2)C(=O)N2C[C@@H](C)C[C@H]2C(=O)NC2(CC(C)(C)C2)C(=O)N(C)[C@@H](C2CCCC2)C(=O)N(C)[C@H](C(=O)N(C)C)CC(=O)N1C [PP2439] | A (a compound having 10 or more and less than 20 is denoted as A) | A (a compound having 10 or more and less than 20 is denoted as A) | – | –
3 | 0.87 nM | 22.3 nM | – | – | – | CCC[C@H]1C(=O)N[C@@H]([C@@H](C)CC)C(=O)N(C2CC2)CC(=O)N(C)[C@H]2C/C(F)=C\CCN(C2=O)[C@@H](Cc2ccc(C)cc2)C(=O)N(C)CC(=O)N[C@@H](CCc2cc(F)c(C(F)(F)F)c(F)c2)C(=O)N2C[C@H](OCC)C[C@H]2C(=O)NC2(CCC2)C(=O)N(C)[C@@H](C2CCCC2)C(=O)N(C)[C@H](C(=O)N(C)C)CC(=O)N1C [PP3519] | B (a compound having 3 or more and less than 10 is denoted as B) | B (a compound having 3 or more and less than 10 is denoted as B) | – | –
4 | – | 80.2 nM | – | – | 1.2 nM | CCC(CC)[C@H]1C(=O)N(C)[C@H](C(=O)N(C)C)CC(=O)N(C)[C@@H](COC)C(=O)N[C@@H]([C@@H](C)CC)C(=O)N(C)CC(=O)N(C)[C@H]2C/C=C\CCN(C2=O)[C@@H](CC2CCC(F)(F)CC2)C(=O)N(C)CC(=O)N[C@@H](CCc2ccc(C(F)(F)F)c(Cl)c2)C(=O)N2C[C@@H](C)C[C@H]2C(=O)NC2(CC(C)(C)C2)C(=O)N1C [PP2454] | AA (a compound having 20 or more is denoted as AA) | A (a compound having 10 or more and less than 20 is denoted as A) | – | –
5 | 1.9 nM | 67 nM | – | – | – | CCCO[C@@H]1C[C@H]2C(=O)NC3(CC(C)(C)C3)C(=O)N(C)[C@@H](C3CCCC3)C(=O)N(C)[C@H](C(=O)N(C)CC)CC(=O)N[C@@H](COCC)C(=O)N[C@@H]([C@@H](C)CC)C(=O)N(C3CC3)CC(=O)N(C)[C@H]3C/C=C\CCN(C3=O)[C@@H](Cc3ccc(C)cc3)C(=O)N(C)CC(=O)N[C@@H](CCc3cc(F)c(C(F)(F)F)c(F)c3)C(=O)N2C1 [PP3421] | A (a compound having 10 or more and less than 20 is denoted as A) | A (a compound having 10 or more and less than 20 is denoted as A) | – | –
6 | 0.057 nM | 5.4 nM | – | – | – | CCC[C@H]1C(=O)N[C@@H]([C@@H](C)CC)C(=O)N(C)CC(=O)N(C)[C@H]2C/C=C\CCN(C2=O)[C@@H](Cc2ccc(C)cc2)C(=O)N(C)CC(=O)N[C@@H](CCc2cc(F)c(C(F)(F)F)c(F)c2)C(=O)N2CC[C@H](OC)[C@H]2C(=O)N(C)C2(CCC2)C(=O)N(C)[C@@H](C2CCCC2)C(=O)N(C)[C@H](C(=O)N(C)C)CC(=O)N1C [PP3287] | A (a compound having 10 or more and less than 20 is denoted as A) | B (a compound having 3 or more and less than 10 is denoted as B) | – | –
7 | – | 303 nM | – | – | 2.6 nM | CC[C@H](C)[C@@H]1NC(=O)[C@H](COC)N(C)C(=O)C[C@@H](C(=O)N(C)C)N(C)C(=O)[C@H](C2CCCC2)N(C)C(=O)C2(CC(C)(C)C2)NC(=O)[C@@H]2C[C@@H](OC(C)C)CN2C(=O)[C@H](CCc2ccc(Cl)c(Cl)c2)NC(=O)CN(C)C(=O)[C@H](CC2CCCCC2)N2CC/C=C\C[C@@H](C2=O)N(C)C(=O)CN(C2CC2)C1=O [PP2513] | A (a compound having 10 or more and less than 20 is denoted as A) | A (a compound having 10 or more and less than 20 is denoted as A) | – | –

More lines, now with the values behind:

Row | SMILES | Kd ([1]; Single Cycle Kinetics) | IC50 ([3]; NCI-H441 cells, 4 days) | Kd [1, 6] | IC50 [3, 9] | Kd ([1]; 1:1 binding model) | NRAS /KRAS [2, 4] | HRAS /KRAS (HRAS wild-type protein; [5]) | NRAS /KRAS [2, 7] | HRAS /KRAS (HRAS wild-type protein; [8])
8 | CCCOC[C@H]1C(=O)N[C@@H]([C@H](C)CC)C(=O)N(CCC)CC(=O)N(C)[C@H]2C/C=C\CCN(C2=O)[C@@H](Cc2ccc(C(F)F)cc2)C(=O)N(C)CC(=O)N[C@@H](CCc2cc(F)c(C(F)(F)F)c(F)c2)C(=O)N2C[C@H](OC(C)C)C[C@H]2C(=O)N(C)C2(CCC2)C(=O)N(C)[C@@H](C(CC)CC)C(=O)N(C)[C@H](C(=O)N(C)C)CC(=O)N1C [PP3492] | 4.2 nM | 89.4 nM | – | – | – | A (a compound having 10 or more and less than 20 is denoted as A) | A (a compound having 10 or more and less than 20 is denoted as A) | – | –
9 | CCO[C@@H]1C[C@H]2C(=O)NC3(CCCC3)C(=O)N(C)[C@@H](C3CCCC3)C(=O)N(C)[C@H](C(=O)N3CCOCC3)CC(=O)N(C)[C@@H](CC)C(=O)N[C@@H]([C@@H](C)CC)C(=O)N(C)CC(=O)N(C)[C@H]3C[C@@H](C)[C@@H](C)CN(C3=O)[C@@H](Cc3ccc(C(F)(F)F)cc3)C(=O)N(C)CC(=O)N[C@@H](CCc3ccc(C(F)(F)F)c(Cl)c3)C(=O)N2C1 [PP1359] | – | – | 0.068 nM | 3.2 nM | – | – | – | A (a compound having 10 or more and less than 20 is denoted as A) | B (a compound having 3 or more and less than 10 is denoted as B)
10 | CCC[C@H]1C(=O)N[C@@H]([C@@H](C)CC)C(=O)N(C)CC(=O)N(C)[C@H]2C/C=C\CCN(C2=O)[C@@H](Cc2ccc(C(F)(F)F)cc2)C(=O)N(C)CC(=O)N[C@@H](CCc2ccc(C(F)(F)F)c(OC)c2)C(=O)N2CC3(CC3)C[C@H]2C(=O)NC2(CCC2)C(=O)N(C)[C@@H](CC(C)(C)C)C(=O)N(C)[C@H](C(=O)N(C)C)CC(=O)N1C [PP3412] | 0.037 nM | 4.3 nM | – | – | – | A (a compound having 10 or more and less than 20 is denoted as A) | B (a compound having 3 or more and less than 10 is denoted as B) | – | –
11 | CCCOC[C@H]1C(=O)N[C@@H]([C@@H](C)CC)C(=O)N(C)CC(=O)N(C)[C@H]2C/C=C\CCN(C2=O)[C@@H](Cc2ccc(C)cc2)C(=O)N(C)CC(=O)N[C@@H](CCc2ccc(C(F)(F)F)c(Cl)c2)C(=O)N2C[C@@H](C)C[C@H]2C(=O)NC2(CC(C)(C)C2)C(=O)N(C)[C@@H](C2CCCC2)C(=O)N(C)[C@H](C(=O)N(C)CC)CC(=O)N1C [PP2467] | – | 21.8 nM | – | – | 0.26 nM | A (a compound having 10 or more and less than 20 is denoted as A) | B (a compound having 3 or more and less than 10 is denoted as B) | – | –
12 | CCC[C@H]1C(=O)N[C@@H](C2CCCC2)C(=O)N(C)CC(=O)N(C)[C@H]2C/C=C\CCN(C2=O)[C@@H](Cc2ccc(C(F)(F)F)cc2)C(=O)N(C)CC(=O)N[C@@H](CCc2ccc(C(F)(F)F)c(OC)c2)C(=O)N2CC3(CC3)C[C@H]2C(=O)N(C)C2(CCC2)C(=O)N(C)[C@@H]([C@@H](C)CC)C(=O)N(C)[C@H](C(=O)N(C)C)CC(=O)N1C [PP3315] | 0.92 nM | 7.2 nM | – | – | – | A (a compound having 10 or more and less than 20 is denoted as A) | A (a compound having 10 or more and less than 20 is denoted as A) | – | –
13 | CCO[C@@H]1C[C@H]2C(=O)NC3(CCC3)C(=O)N(C)[C@@H](C3CCCC3)C(=O)N(C)[C@H](C(=O)N3CCOCC3)CC(=O)N(C)[C@@H](CC(C)C)C(=O)N[C@@H]([C@@H](C)CC)C(=O)N3CC[C@H]3C(=O)N(C)[C@H]3C[C@@H](C)[C@@H](C)CN(C3=O)[C@@H](Cc3ccc(C(F)(F)F)cc3)C(=O)N(C)CC(=O)N[C@@H](CCc3cc(F)c(C(F)(F)F)c(F)c3)C(=O)N2C1 [PP1355] | – | – | 0.16 nM | 10.2 nM | – | – | – | A (a compound having 10 or more and less than 20 is denoted as A) | B (a compound having 3 or more and less than 10 is denoted as B)
14 | CCO[C@@H]1C[C@H]2C(=O)NC3(CC(C)(C)C3)C(=O)N(C)[C@@H](C3CCCC3)C(=O)N(C)[C@H](C(=O)N(C)CC)CC(=O)N(C)[C@@H]([C@@H](C)OC)C(=O)N[C@@H]([C@@H](C)CC)C(=O)N3CCC[C@H]3C(=O)N(C)[C@H]3C/C=C\CCN(C3=O)[C@@H](Cc3ccc(C(F)(F)F)cc3)C(=O)N(C)CC(=O)N[C@@H](CCc3ccc(C(F)(F)F)c(Cl)c3)C(=O)N2C1 [PP3174] | 1.1 nM | 105 nM | – | – | – | AA (a compound having 20 or more is denoted as AA) | A (a compound having 10 or more and less than 20 is denoted as A) | – | –
15 | C=CCN1CC(=O)N(C)[C@H]2C/C=C\CCN(C2=O)[C@@H](Cc2ccc(C(F)F)cc2)C(=O)N(C)CC(=O)N[C@@H](CCc2cc(F)c(C(F)(F)F)c(F)c2)C(=O)N2C[C@H](OC(C)C)C[C@H]2C(=O)N(C)C2(CCC2)C(=O)N(C)[C@@H](C(CC)CC)C(=O)N(C)[C@H](C(=O)N(C)C)CC(=O)N(C)[C@@H](COCCC)C(=O)N[C@@H]([C@@H](C)OCCC)C1=O [PP3486] | 0.61 nM | 12.6 nM | – | – | – | A (a compound having 10 or more and less than 20 is denoted as A) | A (a compound having 10 or more and less than 20 is denoted as A) | – | –

— EP4603105A1, “PHARMACEUTICAL COMPOSITION CONTAINING CYCLIC COMPOUND HAVING SELECTIVE KRAS INHIBITORY EFFECT AGAINST HRAS AND NRAS” (CHUGAI SEIYAKU KABUSHIKI KAISHA, priority 2022, dated 2024)
